# Tested on: cytotoxicity counter-screen, cell viability, 2% serum
# Test: host cell cytotoxicity, X4 fusion assay cells, dose response, cytotoxicity control for HIV-1 antiviral lead project, CXCR4-tropic fusion assay, 2% serum, set 2 (AID 504574)
row,Compound,CC50
1,COc1ccc(CCn2c(O)cc3nn(-c4nc5ccccc5s4)c(=O)c-3c2C)cc1,23.4 µM
2,Cc1c2c(=O)n(-c3nc4ccccc4s3)nc-2cc(O)n1CCc1cccs1,16 µM
3,Cc1c2c(=O)n(-c3nc4ccccc4s3)nc-2cc(O)n1Cc1cccnc1,7.86 µM
4,Cc1c2c(=O)n(-c3nc4ccccc4s3)nc-2cc(O)n1Cc1ccccc1,8.94 µM
5,Cc1c2c(=O)n(-c3nc4ccccc4s3)nc-2cc(O)n1Cc1cccs1,5.51 µM
6,Cc1c2c(=O)n(-c3nc4ccccc4s3)nc-2cc(O)n1CCC(C)C,18.6 µM
7,COc1ccccc1Cn1c(O)cc2nn(-c3nc4ccccc4s3)c(=O)c-2c1C,15.1 µM
8,Cc1c2c(=O)n(-c3nc4ccccc4s3)nc-2cc(O)n1Cc1ccc(F)cc1,4.88 µM
9,Cc1c2c(=O)n(-c3nc4ccccc4s3)nc-2cc(O)n1Cc1ccccc1Cl,6.06 µM
10,Cc1c2c(=O)n(-c3nc4ccccc4s3)nc-2cc(O)n1Cc1ccncc1,9.26 µM
11,COc1ccc(Cn2c(O)cc3nn(-c4nc5ccccc5s4)c(=O)c-3c2C)cc1,5.52 µM
12,Cc1c2c(=O)n(-c3nc4ccccc4s3)nc-2cc(O)n1CCc1ccc(O)cc1,3.34 µM
13,Cc1c2c(=O)n(-c3nc4ccccc4s3)nc-2cc(O)n1C1CC1,3.82 µM

# From PubChem BioAssay AID504574 (Southern Research Specialized Biocontainment Screening …, 2011)
